Results taken from the supplement of paper PMC10307832.

Columns and labels:
Assay in all cases: relative viability (nuclei count vs DMSO), 5 days (fraction); higher = more cells survive
[1] = compound: C1CNCCC1C2=CC(=NN2)C3=CC=NC=C3 + CC(C)C[C@H](NC(=O)[C@H](Cc1ccccc1)NC(=O)c1cnccn1)B(O)O [Bortezomib] (partner 0.002 µM)
In short: (§1)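 Lung cancer cell lines in 1536-well plates got either a single drug or a fixed anchor-drug dose together with five library-drug doses (not always all listed) in √10 steps, by pin tool, on the day after seeding. Nuclei were counted after 5 days, and relative viability is the treated-to-vehicle ratio of nuclei counts. Values are medians of duplicate plates.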

[2] = compound: C1CNCCC1C2=CC(=NN2)C3=CC=NC=C3 + C[C@@H](Oc1cc(-c2cnn(C3CCNCC3)c2)cnc1N)c1c(Cl)ccc(F)c1Cl [Crizotinib] (partner 1 µM)
In short: as §1

Tanzisertib + Navitoclax = compound: O[C@H]1CC[C@H](Nc2ncc3nc(Nc4c(F)cc(F)cc4F)n([C@H]4CCOC4)c3n2)CC1 [Tanzisertib] + CC1(C)CCC(c2ccc(Cl)cc2)=C(CN2CCN(c3ccc(C(=O)NS(=O)(=O)c4ccc(N[C@H](CCN5CCOCC5)CSc5ccccc5)c(S(=O)(=O)C(F)(F)F)c4)cc3)CC2)C1 [Navitoclax] (partner 0.5 µM)
In short: as §1

Tanzisertib + Phenformin = compound: O[C@H]1CC[C@H](Nc2ncc3nc(Nc4c(F)cc(F)cc4F)n([C@H]4CCOC4)c3n2)CC1 [Tanzisertib] + N=C(N)NC(=N)NCCc1ccccc1 [Phenformin] (partner 250 µM)
In short: as §1

For UMC-11, which relative viability ([1]; first compound 0.08 µM) is on record?
Its relative viability is 0.643.

And the relative viability ([1]; first compound 0.8 µM)?
The relative viability was 0.919.

And the relative viability ([1]; first compound 2.53 µM)?
Its relative viability is 0.786.

What about the relative viability ([1]; first compound 8 µM) of the same cell line?
The relative viability was 0.688.

And the relative viability ([2]; first compound 0.08 µM)?
The relative viability was 0.69.

And the relative viability ([2]; first compound 0.8 µM)?
The relative viability was 0.577.

And the relative viability ([2]; first compound 2.53 µM)?
The relative viability was 0.713.

And the relative viability ([2]; first compound 8 µM)?
The relative viability was 0.63.

And the relative viability (Tanzisertib + Navitoclax; first compound 0.08 µM)?
The relative viability was 0.33.

And the relative viability (Tanzisertib + Navitoclax; first compound 0.253 µM)?
Its relative viability is 0.319.

And the relative viability (Tanzisertib + Navitoclax; first compound 0.8 µM)?
Its relative viability is 0.362.

What about the relative viability (Tanzisertib + Navitoclax; first compound 2.53 µM) of the same cell line?
Its relative viability is 0.342.

And the relative viability (Tanzisertib + Navitoclax; first compound 8 µM)?
Its relative viability is 0.392.

What about the relative viability (Tanzisertib + Phenformin; first compound 0.08 µM) of the same cell line?
The relative viability was 0.339.

What about the relative viability (Tanzisertib + Phenformin; first compound 0.253 µM) of the same cell line?
Its relative viability is 0.35.

And the relative viability (Tanzisertib + Phenformin; first compound 0.8 µM)?
Its relative viability is 0.342.

What about the relative viability (Tanzisertib + Phenformin; first compound 2.53 µM) of the same cell line?
Its relative viability is 0.351.

And the relative viability (Tanzisertib + Phenformin; first compound 8 µM)?
Its relative viability is 0.37.
